Assay results as given in PMC3436077 (DARU Journal of Pharmaceutical Sciences, 2011).

How the values were obtained:
[1] = mice; cited from earlier work
[2] = Apical-to-basal transwell transport across MDCK II cell monolayer; details: dog, MDCK
[3] = tested on: MDCK II cells; assay: as above
[4] = tested on: P-glycoprotein (PGP); assay: as above; details: dog, MDCK, M6G permeability in the presence of cyclosporine, MDCK II cells, cyclosporine (10 µM), PGP inhibitor

CN1CC[C@]23c4c5ccc(O)c4O[C@H]2[C@@H](O[C@@H]2O[C@H](C(=O)O)[C@@H](O)[C@H](O)[C@H]2O)C=C[C@H]3[C@H]1C5 [M6G, Morphine-6-glucuronide]
Change of M6G brain uptake in the presence of digoxin [1]: threefold reduction
Papp at 100 min ([2]; M6G permeability in the presence of d-glucose, d-glucose 5µ M, MDCK II, P < 0.05): 2.06 ± 0.02 ×10⁻⁶ cm/s
Papp at 100 min ([2]; M6G permeability in the presence of digoxin, digoxin 5µ M, MDCK II, P < 0.05): 2.64 ± 0.11 ×10⁻⁶ cm/s
Papp at 100 min ([2]; M6G permeability in the presence of probenecid, probenecid 10µ M, MDCK II, P > 0.05): 2.95 ± 0.06 ×10⁻⁶ cm/s
Papp at 100 min, 100 µg/ml ([2]; Permeability ± SD in the presence of morphine, M6G 100 µg/ml + morphine 61,820 ng/ml, MDCK II): 3.31 ± 0.14 ×10⁻⁶ cm/s
Papp at 100 min, 100 µg/ml ([2]; Permeability ± SD, M6G 100 µg/ml alone, MDCK II): 2.92 ± 0.02 ×10⁻⁶ cm/s
Papp at 100 min ([2]; Permeability, MDCK II cells, A→B, 100 min, M6G 100 µg/ml, sucrose 8,000,000 DPM/ml, N=4): 2.94 ± 0.03 ×10⁻⁶ cm/s
M6G apical to basal movement relative to morphine (times lower) ([3]; morphine value from earlier paper): 10 times
Morphine in apical and basal chambers (de-glucuronidation of M6G) ([3]; t= 100 min, sensitive morphine assay): not a significant or detectable morphine
Papp at 100 min [4]: 3.16 ± 0.01 ×10⁻⁶ cm/s
